Measured values taken from ChEMBL document CHEMBL5325471, “Identification of new modulator of DNA repairing pathways based on natural product (±)-peharmaline A” (Bioorg Med Chem, 2023).
Activity calls are given as the source filed them. The rule behind the calls is not given here.

What was measured:
HCT-116 [1] = experiment: Inhibition of DNA repairing pathway in human HCT-116 cells assessed as downregulation of XRCC11 protein expression at 0.25 to 2 uM incubated for 24 hrs by immunoblotting analysis; assay type: functional, cell-based; details: dose 0.25-2 µM
HCT-116 [2] = experiment: Induction of cell cycle arrest in human HCT-116 cells assessed as accumulation of cells at S phase at 2 uM incubated for 24 hrs by RNase/PI staining-based FACS flow cytometry analysis (reference value: 11 %); assay type: functional
[3] = Volume of distribution in BALB/c mouse at 20 mg/kg, ip measured upto 24 hrs by LC-MS/MS analysis; assay type: ADME, organism-based; details: in vivo
HCT-116 [4] = experiment: Induction of DNA damage in human HCT-116 cell assessed as increase in olive tail moment at 4 uM incubated for 24 hrs by EtBr-based alkaline Comet assay (Rvb= 0.26%); assay type: functional
HCT-116 [5] = experiment: Inhibition of epithelial-to-mesenchymal transition in human HCT-116 cells assessed as downregulation of Twist-1 protein expression by immunoblot analysis; assay type: functional, cell-based
HCT-116 [6] = experiment: Induction of cell cycle arrest in human HCT-116 cells assessed as accumulation of cells at G1 phase at 1 uM incubated for 24 hrs by RNase/PI staining-based FACS flow cytometry analysis (reference value: 51 %); assay type: functional
HCT-116 [7] = experiment: Induction of DNA damage in human HCT-116 cell assessed as comet tail formation at 4 uM incubated for 24 hrs by EtBr-based alkaline Comet assay (Rvb= 2.99 %); assay type: functional
HCT-116 [8] = experiment: Inhibition of DNA repairing pathway in human HCT-116 cells assessed as increase in p-Chk2 level at 0.25 to 2 uM incubated for 24 hrs by immunoblotting analysis; assay type: functional, cell-based; details: dose 0.25-2 µM
[9] = AUC (0 to t) in BALB/c mouse at 20 mg/kg, ip measured upto 24 hrs by LC-MS/MS analysis; assay type: ADME, organism-based; design: time < 24 hrs, dose 20 mg/kg, route ip; details: in vivo
4T1 = experiment: Antitumor activity against mouse 4T1 cells implanted in BALB/c mouse assessed as reduction in tumor weight at 20 mg/kg, ip administered every alternate day for 2 weeks relative to control; assay type: functional; design: scale not given: the % may be the effect or the level left
[10] = Elimination half life in BALB/c mouse at 20 mg/kg, ip measured upto 24 hrs by LC-MS/MS analysis; assay type: ADME, organism-based; details: in vivo, read-out: beta t1/2 (converted)

Question: Which inhibition (HCT-116 [1]) does the source give for COC(=O)[C@]1([C@H]2CCn3c2nc2ccccc2c3=O)NCCc2c1[nH]c1ccccc21 (racemic) here?
Answer: Active

Question: What about the Activity (HCT-116 [2]) of the same molecule?
Answer: 4%

Question: What about the Vd [3] of the same molecule?
Answer: 4.4 L/kg

Question: And the Activity (HCT-116 [4])?
Answer: 24.72%

Question: And the inhibition (HCT-116 [5])?
Answer: Active

Question: And the Activity (HCT-116 [6])?
Answer: 71%

Question: And the Activity (HCT-116 [7])?
Answer: 61.4%

Question: What about the inhibition (HCT-116 [8]) of the same molecule?
Answer: Active

Question: And the AUC(0-t) at 24 h [9]?
Answer: 11000 ng·h/mL

Question: And the Activity (4T1)?
Answer: 63%

Question: What about the half-life [10] of the same molecule?
Answer: 1.6 h
